From patent US6583299B1, “α-amino-β-sulfonyl hydroxamic acid compounds” (priority 1999, dated 2003)

Legend:
MMP-1 = target: T1, MMP-1 (Homo sapiens, UniProt P03956); assay: In vitro metalloprotease inhibition, fluorogenic MCA peptide substrate; type: biochemical; conditions: recombinant human enzyme, APMA-activated, room temperature, pH 7.5
T1 construct: host or cells: transfected HT-1080 cells
T1 sequence (P03956 100-469): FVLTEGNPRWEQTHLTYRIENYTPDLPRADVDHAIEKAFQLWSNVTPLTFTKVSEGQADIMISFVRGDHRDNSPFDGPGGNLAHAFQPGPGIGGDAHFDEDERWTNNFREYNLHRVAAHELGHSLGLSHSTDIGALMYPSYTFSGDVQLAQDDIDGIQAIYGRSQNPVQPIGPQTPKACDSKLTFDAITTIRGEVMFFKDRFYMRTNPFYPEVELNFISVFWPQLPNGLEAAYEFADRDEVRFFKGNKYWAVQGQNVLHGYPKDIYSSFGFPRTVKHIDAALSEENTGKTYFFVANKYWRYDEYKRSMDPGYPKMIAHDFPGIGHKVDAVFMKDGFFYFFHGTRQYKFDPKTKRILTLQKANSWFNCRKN

MMP-13 = target: T2, MMP-13 (Homo sapiens, UniProt P45452); assay: as above; type: biochemical; conditions: recombinant human enzyme, APMA-activated, room temperature, pH 7.5; read-out: MMP-13 IC50
T2 construct: made in house; host or cells: baculovirus / insect cells

[1] = system: human moncytic line U-937; assay: Tumor necrosis factor assay: PMA-stimulated TNF release, TNFα ELISA; type: cell-based; conditions: U-937 cells; for inhibition at 10 µM: compound at 10 μM, read-out: Per Cent Inhibition of TNF? Release [average]
Description: The cells used in the assay are the human moncytic line U-937 (ATCC CRL-1593). The cells are grown RPMI w/10% FCS and PSG supplement (R-10) and are not permitted to overgrow. The assay is carried out as follows:
1. Count, then harvest cells by centrifugation. Resuspend the pellet in R-10 supplement to a concentration of 1.540×10^6 cells/mL.
2. Add test compound in 65 μL R-10 to the appropriate wells of a 96-well flat bottom tissue culture plate. The initial dilution from a DMSO stock (100 mM compound) provides a 400 μM solution, from which five additional three-fold serial dilutions are made.
3. The counted, washed and resuspended cells (200,000 cells/well) in 130 μL are added to the wells.
4. Incubation is for 45 minutes to one hour at 37° C. in 5% CO2 in a water saturated container.
5. R-10 (65 μL)containing 160 ng/mL PMA (Sigma) is added to each well. 6. The test system is incubated at 37° C. in 5% CO2 overnight (18-20 hours) under 100% humidity.
7. Supernatant, 150 μL, is carefully removed from each well for use in the ELISA assay.
Coat Immulon® 2 plates with 0.1 mL/well of 1 ug/mL Genzyme mAb in 0.1 M NaHCO3 pH 8.0 buffer overnight (about 18-20 hours) at 4° C., wrapped tightly in Saran® wrap.
Wash wells thoroughly 4× with wash buffer and completely remove all wash buffer. Add 0.1 mL/well of either samples or rhTNFα standards. Dilute samples if necessary in appropriate diluent (e.g. tissue culture medium). Dilute standard in same diluent. Standards and samples should be in triplicates.
Wash plates as above. Add 0.1 mL/well of 1:200 dilution of Genzyme rabbit anti-hTNFα.
Repeat wash. Add 0.1 mL/well of 1 μg/mL Jackson goat anti-rabbit IgG (H+L)-peroxidase.
Repeat wash. Add 0.1 mL/well of peroxide-ABTS solution.

MMP-2 = target: T3, MMP-2 (Homo sapiens, UniProt P08253); assay: In vitro metalloprotease inhibition, fluorogenic MCA peptide substrate; type: biochemical; conditions: room temperature, pH 7.5
T3 sequence (P08253 110-660): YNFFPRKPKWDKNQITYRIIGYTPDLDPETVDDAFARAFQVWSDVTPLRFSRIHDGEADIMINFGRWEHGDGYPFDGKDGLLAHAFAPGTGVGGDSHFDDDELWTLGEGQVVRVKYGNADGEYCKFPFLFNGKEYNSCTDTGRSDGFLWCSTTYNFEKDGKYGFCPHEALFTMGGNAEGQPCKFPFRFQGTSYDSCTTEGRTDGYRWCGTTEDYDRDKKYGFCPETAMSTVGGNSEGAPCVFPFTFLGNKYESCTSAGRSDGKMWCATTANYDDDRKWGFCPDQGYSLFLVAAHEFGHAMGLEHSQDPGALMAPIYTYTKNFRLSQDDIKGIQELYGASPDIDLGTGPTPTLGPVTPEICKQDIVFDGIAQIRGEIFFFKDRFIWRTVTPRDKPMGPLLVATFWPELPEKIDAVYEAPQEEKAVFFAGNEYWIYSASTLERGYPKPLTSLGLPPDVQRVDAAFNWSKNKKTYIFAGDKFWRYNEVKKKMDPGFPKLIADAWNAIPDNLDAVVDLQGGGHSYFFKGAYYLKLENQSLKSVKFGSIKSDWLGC

[2] = system: solid tumor cancers (colorectal, pancreatic, ovarian, prostate); conditions: cited from earlier work

SMILES | IC50 (MMP-1) [nM] | IC50 (MMP-13) [nM] | IC50 (MMP-2) [nM] | IC50 [1] [nM] | Most common drug-related toxicity ([2]; clinical trials, Phase I/II) | Effect on cancer-specific antigens used as surrogate markers for biological activity ([2]; patients with advanced, rapidly progressive, treatment-refractory solid tumor cancers) | inhibition at 10 µM [1] [%]
COc1ccc(S(=O)(=O)CC(N)C(=O)NO)cc1 (stereo not shown) [Example 22] | 250 | 15 | – | > 29000 | – | – | –
COc1ccc(S(=O)(=O)CC(NC(=O)[C@@H](C)NC(=O)OCc2ccccc2)C(=O)NO)cc1 (stereo partly shown) [Example 25] | 1 | 1 | – | 14000 | – | – | –
CNC(CS(=O)(=O)c1ccc(NC(=O)c2ccccc2)cc1)C(=O)NO (stereo not shown) [Example 64] | 7000 | 8.1 | 0.4 | – | – | – | –
CC(N)(CS(=O)(=O)c1ccc(NC(=O)c2ccccc2)cc1)C(=O)NO (stereo not shown) [Example 61] | > 10000 | 60 | 1.1 | – | – | – | –
CC(C)(C)OC(=O)NC(C)(CS(=O)(=O)c1ccc(NC(=O)c2ccccc2)cc1)C(=O)NO (stereo not shown) [Example 62] | 72.3 | 1200 | 23.9 | – | – | – | –
COc1ccc(S(=O)(=O)CC(NC(C)=O)C(=O)NO)cc1 (stereo not shown) [Example 24] | 5200 | 650 | – | > 50000 | – | – | –
CNC(=O)[C@@H](NC(=O)[C@H](CC(C)C)[C@H](O)C(=O)NO)C(C)(C)C [marimastat] | – | – | – | – | musculoskeletal pain and stiffness | dose-related reduction in the rise of cancer-specific antigens | –
O=C(NO)[C@H](CS(=O)(=O)c1ccc(Oc2ccccc2)cc1)N1CCCCC1 [Example 54] | 345 | 0.3 | 0.2 | – | – | – | –
COc1ccc(S(=O)(=O)CC(NC(C)=O)C(=O)NO)cc1OC (stereo not shown) [Example 23] | > 10000 | 1500 | – | > 50000 | – | – | –
COc1ccc(S(=O)(=O)CC(NC(=O)CCC(=O)OCc2ccccc2)C(=O)NO)cc1 (stereo not shown) [Example 7] | 200 | 2.5 | – | > 50000 | – | – | –
COc1ccc(S(=O)(=O)CC(NC(=O)CCC(=O)O)C(=O)NO)cc1 (stereo not shown) [Example 8] | 600 | 60 | – | > 50000 | – | – | –
CC(=O)NC(CS(=O)(=O)c1ccc(Br)cc1)C(=O)NO (stereo not shown) [Example 5, N-Hydroxy-3-[(4-bromophenyl)sulfonyl]-2-[(methylcarbonyl)amino]propanamide] | 100 | 200 | – | > 50000 | – | – | -10.8
CCCCC(=O)NC(CS(=O)(=O)c1ccc(OC)cc1)C(=O)NO (stereo not shown) [Example 4, N-Hydroxy-3-[(4-methoxyphenyl)sulfonyl]-2-[(butylcarbonyl)amino]propanamide] | 400 | 3.5 | – | > 50000 | – | – | -3.8
N[C@H](CNO)CS(=O)(=O)c1ccc(Oc2ccccc2)cc1 [Example 60] | 440 | 0.4 | 0.3 | – | – | – | –
COc1ccc(CC(=O)NC(CS(=O)(=O)c2ccc(Sc3ccccc3)cc2)C(=O)NO)c(OC)c1 (stereo not shown) [Example 31] | 3000 | 0.4 | 0.8 | – | – | – | –

The next lines start with results.

IC50 (MMP-1) [nM] | IC50 (MMP-13) [nM] | IC50 (MMP-2) [nM] | SMILES | IC50 [1] [nM] | Most common drug-related toxicity ([2]; clinical trials, Phase I/II) | Effect on cancer-specific antigens used as surrogate markers for biological activity ([2]; patients with advanced, rapidly progressive, treatment-refractory solid tumor cancers) | inhibition at 10 µM [1] [%]
500 | 0.3 | 0.2 | CC(C)(C)OC(=O)N[C@@H](CS(=O)(=O)c1ccc(Oc2ccccc2)cc1)C(=O)NO [Example 33] | – | – | – | –
350 | 0.4 | 0.25 | COc1cccc(OC)c1C(=O)N[C@@H](CS(=O)(=O)c1ccc(Oc2ccccc2)cc1)C(=O)NO [Example 37] | – | – | – | –
316 | 0.3 | 0.3 | O=C(N[C@@H](CS(=O)(=O)c1ccc(Oc2ccccc2)cc1)C(=O)NO)c1ccnc2ccccc12 [Example 50] | – | – | – | –
8100 | 2.1 | 0.3 | CCN(CC)c1ccc(C(=O)N[C@@H](CS(=O)(=O)c2ccc(Oc3ccccc3)cc2)C(=O)NO)cc1 [Example 53] | – | – | – | –
258 | 45.3 | 0.6 | CN(C(=O)Cc1ccncc1)[C@H](CS(=O)(=O)c1ccc(Oc2ccccc2)cc1)C(=O)NO [Example 47] | – | – | – | –
580 | 0.8 | 0.4 | CC(=O)N1CCC(C(=O)NC(CS(=O)(=O)c2ccc(Oc3ccccc3)cc2)C(=O)NO)CC1 (stereo not shown) [Example 59] | – | – | – | –
1310 | 1.1 | 0.3 | O=C(N[C@@H](CS(=O)(=O)c1ccc(Oc2ccccc2)cc1)C(=O)NO)c1ccncc1 [Example 46] | – | – | – | –
295 | 0.4 | 0.3 | O=C(N[C@@H](CS(=O)(=O)c1ccc(Oc2ccccc2)cc1)C(=O)NO)c1ccnc2ccccc12 [Example 51] | – | – | – | –
2000 | 25 | – | COc1ccc(S(=O)(=O)CC(NC(=O)c2ccccc2)C(=O)NO)cc1 (stereo not shown) [Example 3, N-Hydroxy-3-[(4-methoxyphenyl)sulfonyl]-2-[(phenylcarbonyl)amino]propanamide] | – | – | – | 3.72
475 | 0.2 | < 0.1 | CN(Cc1ccccc1)[C@H](CS(=O)(=O)c1ccc(Oc2ccccc2)cc1)C(=O)NO [Example 48] | – | – | – | –
900 | 0.8 | 0.3 | O=C(N[C@@H](CS(=O)(=O)c1ccc(Oc2ccccc2)cc1)C(=O)NO)c1ccncc1 [Example 44] | – | – | – | –
